Assay results taken from patent US20220339135A1, “COMPOSITIONS AND METHODS FOR MODULATING AN INFLAMMATORY RESPONSE” (Enzychem Lifesciences Corporation, priority 2019, published 2022).

Key:
[1] = tested on: apoptotic neutrophils (differentiated HL60) co-cultured with macrophage (differentiated THP-1); assay: Efferocytosis index and apoptotic cell clearance; format: cell-based, human
Description: THP-1 and HL60 cells were obtained from the American Type Culture Collection (ATCC, Rockville, Md., USA). THP-1 cells were grown in RPMI1640 medium (WELGENE, Seoul, Korea) containing 10% fetal bovine serum (HyClone, Waltham, Mass., USA), 1% antibiotics (100 mg/l streptomycin, 100 U/ml penicillin), and 0.4% 2-Mercaptoethanol (Sigma Aldrich, St. Louis, Mo., USA). HL60 cells were grown in RPMI1640 medium containing 20% fetal bovine serum and 1% antibiotics (100 mg/l streptomycin, 100 U/ml penicillin). Cells were grown at 37° C. in a 5% CO2 atmosphere. To differentiate THP-1 cells into macrophage-like cells, cells were grown in medium with 1% Phorbol 12-myristate 13-acetate (PMA) (Sigma Aldrich) for 72 h. To differentiate […] cells into neutrophil-like cells, cells were grown in medium with 10% DMSO (Sigma Aldrich) for 5 days
Differentiation HL60 was stained with […] CellTracker Red CMTPX (Molecular probes, Eugene, OG, USA) for 30 minutes in PBS and lead to apoptosis by PMA treatment for 24 hours. […] Efferocytotic index was analyzed by FACS (BD bioscience, Franklin Lakes, N.J., USA). […]
Differentiation HL60 was stained with […] CellTracker Red CMTPX (Molecular probes, Eugene, OG, USA) for 30 minutes in PBS and lead to apoptosis by PMA treatment. […] Fluorescence overlay videos were recorded using ZEN program (Carl Zeiss, Thornwood, NY, USA)

[2] = tested on: HMGB1, S100A8, S100A9, LDH in supernatant of THP-1 cells; assay: MSU-induced DAMP and LDH release; format: cell-based, human; details: PLAG 100 μg/ml, MSU 400 μg/ml
Description: THP-1 cells were divided into two groups: 1) MSU treated group and 2) MSU/PLAG treated group. For MSU treated group, THP-1 cells were stimulated with monosodium urate (MSU) crystal (400 μg/ml) for 0, 15, 30, 60 minutes. For MSU/PLAG treated group, THP-1 cells were pre-incubated with PLAG (100 μg/ml) for 1 hour and then stimulated with monosodium urate (MSU) crystal (400 μg/ml) for 0, 15, 30, 60 minutes. Then, cells were centrifuged, and the supernatant was harvested. Add 50 μL 5×SDS sample buffer to 200 μL supernatant of THP-1 cells. Proteins from each sample were separated by sodium dodecyl sulfate (SDS)-polyacrylamide gel electrophoresis on 8% polyacrylamide gels and the proteins were blotted onto a PVDF membrane (Millipore Corporation, Germany). The membrane was blocked with 5% non-fat dried milk (BD bioscience) in PBS containing 0.05% Tween-20 (Calbiochem) for 1 hour. The membrane was incubated with anti-high mobility group box 1 (HMGB1) (abcam), anti-S100A9 (abcam) at 4° C. overnight. After washing with PBS containing 0.05% Tween-20, the membrane was stained with goat anti-rabbit IgG peroxidase (ENZO). Target proteins were detected with Immobilon Western Chemiluminescent HRP Substrate (Millipore Corporation). Lactate dehydrogenase (LDH) of Supernatant was measured using the LDH assay kit.

[3] = tested on: intracellular ROS in BMDMs and THP-1 cells; assay: Gemcitabine-induced intracellular ROS measurement; format: cell-based; details: gemcitabine 10 μg/mL 3 h, dose-dependent
Description: A total of 1×10^6 BMDMs and THP-1 were seeded, cultured, and subsequently exposed to various concentrations of PLAG with gemcitabine (10 μg/mL) for 3 h. The cells were then incubated with the ROS-sensitive probe CM-H2DCFDA (Invitrogen™) for 30 min at 37° C. in the dark. After incubation, the cells were washed 3 times with PBS and immediately analyzed using FACS verse (BD biosciences) with an excitation/emission peak at 495/527 nm. A total of 10,000 cells were counted in each determination, and results presented are means±S.E. of three independent experiments. Intracellular ROS production was also measured with a confocal laser scanning microscope (Zeiss LSM 800, Oberkochen, Germany). After incubating CM-H2DCFDA as above, the cells were fixed with 4% paraformaldehyde for 30 min and washed 3 times with PBS before photographing. The excitation and emission wavelengths were identical as described above, and a minimum of 5 random fields was captured for each culture.

[4] = tested on: chemo-radiation induced oral mucositis; assay: Chemo-radiation induced oral mucositis (CRIOM), Example 48; format: in vivo, mice
Description: Mice (7-9 weeks, Balb/[…]) were administered intraperitoneally 5-FU (100 mg/kg, Sigma Aldrich). After 1 hr, mice head received 20 Gy using x-ray irradiatior (X-RAD 320, 1.8 Gy/min). Custom-made lead shields were used for mice to limit the radiation to the heads. PLAG (Enzychem Lifesciences Co.) was administered orally with 250 mg/kg once daily. The experimental design of the study was represented in schematic design. […] Toluidine blue stains ribonucleotides and detect inflammatory tissues.

[5] = tested on: radiation-induced lung injury; assay: Radiation-induced lung injury in mice; format: in vivo
Description: Balb/c mice were grouped into four groups: 1) control group, 2) radiation group, 3) radiation+EC-18 50 mg/kg of PLAG, and 4) radiation+EC-18 250 mg/kg of PLAG. Lung was extracted at day 3 after 6.11Gy of TBI by γ-ray (FIG. 37A). EC-18 was treated daily. Tissue was fixed with formaldehyde, and H&E staining was carried out.

CCCCC/C=C\C/C=C\CCCCCCCC(=O)OC(COC(C)=O)COC(=O)CCCCCCCCCCCCCCC (racemic) [PLAG, 1-palmitoyl-2-linoleoyl-3-acetylglycerol]
clearance of apoptotic neutrophils by macrophage phagocytosis observed within ([1]; PLAG 100 μg/mL, confocal): ≤ 30 min
efferocytosis of apoptotic neutrophils (efferocytotic index) ([1]; dose-dependently): promotes
release of MSU crystal-induced HMGB1, S100A8, S100A9 and LDH to the supernatant [2]: modulated the release
gemcitabine-induced intracellular ROS production [3]: effectively reduced
mucositis and ulcer in tongues ([4]; PLAG 250 mg/kg once daily, day 9): no mucositis and ulcer
mice tongues stained with toluidine blue ([4]; PLAG treated group n=8, day 9): one out of eight
pulmonary capillary leakage ([5]; 6.11Gy TBI, day 3, dose-dependently): less pulmonary capillary leakage
leakage erythrocyte at the interstitial tissue ([5]; PLAG 50mpk and 250mpk): not observed
